{"source": "paper PMC10799292", "about": "“The Role of β-Defensin 1 Against Porphyromonas gingivalis Lipopolysaccharide-Mediated Inflammation in the THP-1 Cell Line” (Cureus, 2023)", "key": {"[1]": {"settings": "molecular docking; cited from earlier work", "text": "Two important functions of macrophages are to eliminate pathogens through phagocytosis and apoptosis of inflammatory cells and their subsequent clearance (efferocytosis). The present study analyzed the role of AMP, β-defensin 1, in Pg-LPS-stimulated THP-1 differentiated macrophage cells."}, "[2]": {"system": "COX", "test": "Cyclooxygenase (COX) activity inhibition in lysate of Pg-LPS stimulated THP-1 cells", "format": "cell-based, human", "settings": "for COX Percentage inhibition Average / COX Percentage inhibition 1 / COX Percentage inhibition 2: Pg-LPS 1 µg/mL, 24 h; for COX Percentage inhibition Average: mean of duplicates; for COX Percentage inhibition 1: replicate 1; for COX Percentage inhibition 2: replicate 2", "method": "(§1) For inducing differentiation of THP-1 cells into macrophages, the cell line was premixed with 25 ng/mL PMA and incubated for 48 hours. After incubation, 5x10^4 cells were activated with Pg-LPS (LPS: 1 µg/mL) for one hour. Pg-LPS stimulated cells were exposed to different concentrations (6.25, 12.5, and 25 ng/mL) of β-defensin 1 and incubated for 24 hours. After incubation, the following anti-inflammatory assays were conducted utilizing the cell lysate.\nThe cyclooxygenase (COX) activity was assayed by the method of Walker and Gierse. The cell lysate was incubated for one minute at 25°C with Tris-HCl buffer (pH 8), glutathione 5 mM/L, and hemoglobin 5 mM/L. Arachidonic acid 200 mM/L was added to initiate the reaction, and after 20 minutes at 37°C, 200 µL of 10% trichloroacetic acid in 1 N hydrochloric acid was added to terminate the reaction. After centrifugation and addition of 200 µL of 1% thiobarbituric acid, the tubes were boiled for 20 minutes. After cooling, the tubes were centrifuged for three minutes. By reading absorbance at […], COX activity was measured, and the percentage of COX activity inhibition was calculated as per the following formula"}, "[3]": {"system": "Pg-LPS stimulated THP-1 cells", "test": "Cytotoxic evaluation of β-defensin 1 against Pg-LPS-treated THP-1 cells (MTT)", "format": "cell-based, human", "settings": "β-defensin 1 at 260.85 ng/mL, 24 h, triplicates", "method": "The THP-1 cell line was cultured in DMEM and supplemented with 10% FBS, sodium bicarbonate, L-glutamine, and an antibiotic solution containing penicillin (100 U/mL), amphotericin B (2.5 µg/mL), and streptomycin (100 µg/mL). The cells were maintained in a 5% humidified CO2 incubator (NBS Eppendorf, Germany) at 37°C. To induce differentiation into macrophages, the THP-1 cell line was treated with 25 ng/mL phorbol 12-myristate 13-acetate (PMA) (cat. 91585, Sigma-Aldrich, USA) and incubated for 48 hours. Following incubation, the cells were seeded in a 96-well culture plate at a density of 5x10^4 cells/well and incubated for 24 hours in a humidified 5% CO2 incubator at 37°C.\nInverted phase contrast microscopy (IPCM) using an Olympus CKX41 microscope (Olympus, Japan) equipped with an Optika Pro5 CCD camera (Optika, Italy) was utilized to directly observe the cells. Cell viability was determined using the MTT (3-(4,5-Dimethylthiazol-2-yl)-2,5-diphenyltetrazolium bromide) assay (Sigma, M-5655). […] The absorbance of this colored solution can be quantified by measuring at approximately 570 nm using a spectrophotometer.\nThe whole plate was analyzed under a microscope with an IPCM, and the results were photographed. […] The purple formazan crystals were dissolved in dimethyl sulfoxide (DMSO) and the absorbance (OD) was measured at 570 nm using a microplate reader. […]"}, "[4]": {"system": "MPO", "test": "Myeloperoxidase (MPO) activity in lysate of Pg-LPS stimulated THP-1 cells", "format": "cell-based, human", "settings": "for MPO Enzyme activity Average / MPO Enzyme activity 1 / MPO Enzyme activity 2: Pg-LPS 1 µg/mL, 24 h; for MPO Enzyme activity Average: mean of duplicates; for MPO Enzyme activity 1: replicate 1; for MPO Enzyme activity 2: replicate 2", "method": "as §1\nCell lysate was homogenized in hexadecyltrimethyl ammonium bromide (HTAB) and potassium phosphate buffer. The samples were centrifuged at 2000g for 30 minutes at 4°C and the activity of myeloperoxidase (MPO) enzyme was measured with the supernatant. MPO in the sample was stimulated by adding 50 mM phosphate buffer (pH 6) containing 1.67 mg/mL guaiacol and 0.0005% hydrogen peroxide. The absorbance change at […] was determined. The MPO activity (U) was shown as units per milliliter of cell lysate. At 25 °C, one unit of MPO activity corresponds to the degradation of 1µM peroxide per minute.\nwhere ΔOD is the density change, Vt is the total volume (mL) (1.1 mL ), L is the light path (1 cm), and £470 is the extinction coefficient for tetraguaiacol (26.6 mM^-1·cm^-1)."}, "[5]": {"system": "THP-1 cells", "test": "Cell cycle distribution by flow cytometry", "format": "cell-based, human", "settings": "co-treated with β-defensin 1, Pg-LPS stimulated", "method": "Untreated control and Pg-LPS stimulated cells were also maintained. The MUSE Cell Cycle Kit was added, and the manufacturer's instructions were followed."}, "[6]": {"settings": "6.25, 12.5, and 25 ng/mL, Pg-LPS stimulated"}}, "note": "No end group written: not given here."}
{"substance": "β-defensin 1: β-Defensin 1 peptide was purchased from ThermoFisher Scientific, USA; cationic antimicrobial peptide (DHYNCVSSGGQCLYSACPIFTKIQGTCYRGKAKCCK; ends and bridges not checked; cysteine pairing not given here; UniProt P60022 33-68, looked up)", "values": [{"measurement": "binding affinity with Pg-LPS (docking)", "setting": "[1]", "value": "good binding affinity with Pg-LPS"}, {"measurement": "COX Percentage inhibition Average", "setting": "[2]; 6.25 ng/mL", "value": 19.085, "unit": "%"}, {"measurement": "COX Percentage inhibition 1", "setting": "[2]; 6.25 ng/mL", "value": 19.77, "unit": "%"}, {"measurement": "COX Percentage inhibition 2", "setting": "[2]; 6.25 ng/mL", "value": 18.4, "unit": "%"}, {"measurement": "COX Percentage inhibition Average", "setting": "[2]; 12.5 ng/mL", "value": 35.75, "unit": "%"}, {"measurement": "COX Percentage inhibition 1", "setting": "[2]; 12.5 ng/mL", "value": 36.41, "unit": "%"}, {"measurement": "COX Percentage inhibition 2", "setting": "[2]; 12.5 ng/mL", "value": 35.09, "unit": "%"}, {"measurement": "COX Percentage inhibition Average", "setting": "[2]; 25 ng/mL", "value": 53.03, "unit": "%"}, {"measurement": "COX Percentage inhibition 1", "setting": "[2]; 25 ng/mL", "value": 53.21, "unit": "%"}, {"measurement": "COX Percentage inhibition 2", "setting": "[2]; 25 ng/mL", "value": 52.85, "unit": "%"}, {"measurement": "COX percentage inhibition (in words)", "setting": "[2]; [6]", "value": "increased in a concentration-dependent manner"}, {"measurement": "IC50 (COX inhibition assay)", "setting": "[2]; Pg-LPS 1 µg/mL 1 h, then β-defensin 1 24 h", "value": 0.02262, "unit": "µg/mL"}, {"measurement": "viability (in words)", "setting": "[3]; Pg-LPS (1 h) up to 1 µg/mL", "value": "increased the viability of THP-1 cells"}, {"measurement": "viability (in words)", "setting": "[3]; Pg-LPS beyond 1 µg/mL", "value": "decrease in viability"}, {"measurement": "MPO Enzyme activity Average", "setting": "[4]; 6.25 ng/mL", "value": 0.02795, "unit": "U/mL"}, {"measurement": "MPO Enzyme activity 1", "setting": "[4]; 6.25 ng/mL", "value": 0.0278, "unit": "U/mL"}, {"measurement": "MPO Enzyme activity 2", "setting": "[4]; 6.25 ng/mL", "value": 0.0281, "unit": "U/mL"}, {"measurement": "MPO Enzyme activity Average", "setting": "[4]; 12.5 ng/mL", "value": 0.021, "unit": "U/mL"}, {"measurement": "MPO Enzyme activity 1", "setting": "[4]; 12.5 ng/mL", "value": 0.0209, "unit": "U/mL"}, {"measurement": "MPO Enzyme activity 2", "setting": "[4]; 12.5 ng/mL", "value": 0.0211, "unit": "U/mL"}, {"measurement": "MPO Enzyme activity Average", "setting": "[4]; 25 ng/mL", "value": 0.01515, "unit": "U/mL"}, {"measurement": "MPO Enzyme activity 1", "setting": "[4]; 25 ng/mL", "value": 0.0152, "unit": "U/mL"}, {"measurement": "MPO Enzyme activity 2", "setting": "[4]; 25 ng/mL", "value": 0.0151, "unit": "U/mL"}, {"measurement": "MPO enzyme activity (in words)", "setting": "[4]; [6]", "value": "decreased in a concentration-dependent manner"}, {"measurement": "arrest in the G0/G1 phase (in words)", "setting": "[5]", "value": "reduced"}]}
